Earlier results in patent US20100098759A1, “CONTROLLED-RELEASE PREPARATION CONTAINING CILOSTAZOL AND PROCESS FOR THE PREPARATION THEREOF” (AMOREPACIFIC CORPORATION;, priority 2007, published 2010).

O=C1CCc2cc(OCCCCc3nnnn3C3CCCCC3)ccc2N1 [Cilostazol]
water-solubility: ≤ 1 µg/mL
